Consider 3 compounds from PubChem BioAssay (NCI).

The structures appear in SMILES notation. Several values for one entry are separate records, joined by “and”; a condition that tells them apart may be missing. Equal values may be shown once.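 These data come from cells grown in 96-well plates and exposed to compound for 48 hours at five concentrations. GI50 marks 50% less growth. TGI: total growth inhibition.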

Test systems include PC-3 prostate; HS 578T breast; LOX IMVI melanoma; UACC-62 melanoma; UACC-257 melanoma; OVCAR-5 ovarian; U251 CNS; T-47D breast; OVCAR-4 ovarian; NCI-H522 lung.
Assay in all cases: growth of human tumour cells (NCI), 48 h

Turning to `CC[C@@]1(O)C(=O)OCc2c1cc1n(c2=O)Cc2cc3c(N)cccc3nc2-1`, the TGI is greater than 100 µM in the assay with PC-3 prostate; greater than 60.7 µM in the assay with HS 578T breast; 0.255 µM with LOX IMVI melanoma; 0.033 µM and 0.0638 µM with UACC-62 melanoma; 2.99 µM in the assay with UACC-257 melanoma; 1.1 µM in the assay with OVCAR-5 ovarian. For the same compound, the TGI was determined as 1.55 µM in the assay on U251 CNS, 3.62 µM in the assay with OVCAR-4 ovarian and 1.35 µM with NCI-H522 lung. Moreover, the GI50 with HS 578T breast was 0.0865 µM; in the assay on LOX IMVI melanoma, 0.00462 µM; in the assay with UACC-62 melanoma, 0.00361 µM; in the assay with OVCAR-5 ovarian, 0.0763 µM; in the assay on U251 CNS, 0.00889 µM; with T-47D breast, 0.00662 µM. Also, the GI50 with NCI-H522 lung is 0.0234 µM.
Consider `Cn1cnc([N+](=O)[O-])c1Sc1nc(N)nc2nc[nH]c12`, for which the GI50 with PC-3 prostate was 7.91 µM; with HS 578T breast, 14.5 µM; in the assay with LOX IMVI melanoma, 0.488 µM; with UACC-62 melanoma, 2.96 µM; in the assay on UACC-257 melanoma it was 8.38 µM; in the assay on OVCAR-5 ovarian, 4.48 µM. Besides, the GI50 with U251 CNS was 23 µM; in the assay with T-47D breast, 8.57 µM; with OVCAR-4 ovarian, 4.38 µM; in the assay on NCI-H522 lung, 3.56 µM. The TGI in the assay with PC-3 prostate is greater than 100 µM; in the assay with HS 578T breast it was greater than 100 µM; in the assay on LOX IMVI melanoma it was greater than 100 µM; in the assay on UACC-62 melanoma it was 25.7 µM; in the assay with UACC-257 melanoma, greater than 100 µM; in the assay with OVCAR-5 ovarian it was greater than 100 µM. The TGI with U251 CNS was greater than 100 µM; in the assay with T-47D breast, greater than 100 µM; with OVCAR-4 ovarian, greater than 100 µM; with NCI-H522 lung it was greater than 90.5 µM.
For the compound `COC(=O)[C@H](Cc1ccccc1)NC(=O)c1csc([C@@H](C[C@H](C(C)C)N(C)C(=O)[C@@H](NC(=O)[C@H]2CCCN2C)C2CC2)OC(C)=O)n1`, the GI50 in the assay with PC-3 prostate is 0.572 µM; with HS 578T breast, 0.122 µM; with LOX IMVI melanoma, 0.301 µM; in the assay on UACC-62 melanoma, 1.38 µM; in the assay on UACC-257 melanoma, 16.9 µM; in the assay with OVCAR-5 ovarian it was 1.66 µM. In addition, the GI50 in the assay on U251 CNS is 0.521 µM; in the assay with T-47D breast, greater than 7.36 µM; in the assay on OVCAR-4 ovarian it was 3.98 µM; in the assay with NCI-H522 lung, 0.0783 µM. For the same compound, the TGI with PC-3 prostate, in the assay with HS 578T breast, in the assay on LOX IMVI melanoma, in the assay with UACC-62 melanoma, with UACC-257 melanoma and in the assay on OVCAR-5 ovarian was greater than 33.3 µM throughout. For the same compound, the TGI in the assay on U251 CNS, with T-47D breast, in the assay with OVCAR-4 ovarian and in the assay on NCI-H522 lung was greater than 33.3 µM in each case.
